Measurements: PubChem BioAssay (NCI)
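A five-concentration, 48-hour dose response in 96-well plates underlies each endpoint, interpolated linearly between surrounding concentrations. GI50 is the concentration that inhibits growth by half. TGI: total growth inhibition.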

Tests used:
Experiment in all cases: NCI tumour cell line growth inhibition, 48 h
RXF-631 renal = test system: RXF-631 renal
LXFL 529 NSCLC = test system: LXFL 529 NSCLC
DLD-1 colon = test system: DLD-1 colon
SNB-78 CNS = test system: SNB-78 CNS
M19-MEL melanoma = test system: M19-MEL melanoma
DMS 273 small cell lung = test system: DMS 273 small cell lung
XF 498 CNS = test system: XF 498 CNS
HOP-18 NSCLC = test system: HOP-18 NSCLC
MDA-N = test system: MDA-N
SN12K1 renal = test system: SN12K1 renal

Compound	TGI (RXF-631 renal) [µM]	TGI (LXFL 529 NSCLC) [µM]	TGI (DLD-1 colon) [µM]	TGI (SNB-78 CNS) [µM]	TGI (M19-MEL melanoma) [µM]	TGI (DMS 273 small cell lung) [µM]	TGI (XF 498 CNS) [µM]	TGI (HOP-18 NSCLC) [µM]	TGI (MDA-N) [µM]	other results
CCCN(CCCCC(NC(C)=O)C(=O)NCc1ccccc1)C(=O)NC (centres undefined)	> 100	> 100	> 100	> 100	> 100	> 100	> 100			
Cn1nnnc1[N-]Cc1ccccc1.[Au+].c1ccc([PH+](c2ccccc2)c2ccccc2)cc1		2.79	4.59	> 66.9	25.3	> 100		4.98		GI50 (LXFL 529 NSCLC): 1.45 µM; GI50 (DLD-1 colon): 1.91 µM; GI50 (SNB-78 CNS): 6.86 µM; GI50 (HOP-18 NSCLC): 2.25 µM; GI50 (M19-MEL melanoma): 3.32 µM; GI50 (DMS 273 small cell lung): 11.1 µM
O=C1Cc2c(-c3ccccc3)cc(-c3cccc(Cl)c3)nc2-c2ccccc2N1									31.6	
COC1C(=O)CCC2(CO2)C1(O)C1(C)OC1CCC(C)C (centres undefined)									> 100	
COC(=O)/C(=N/NC(C)(C)C)C(C(=O)C=C(C)C)C(=O)C(=O)Nc1ccc(Cl)cc1C (centres undefined)		> 100			> 100		> 100			
CCOC(=O)c1c2ccc(/C=C/C(=O)OC)ccc-2c(C(=O)OCC)c1N		> 100	> 100		> 100	> 100		> 100		
OCCCNCc1ccccn1									> 100	
CC(SC1=CC(=O)c2c(O)ccc(O)c2C1=O)C(=O)O (centres undefined)	> 100	> 51.6	> 57.1	> 79.1		> 100	> 82.2	> 90.3		
CN(C)CCNC(=O)c1cc([N+](=O)[O-])cc2ccc(-c3ccccc3)nc12		58	39.5	> 60.9	20	31.7	21.7	26.3		TGI (SN12K1 renal): 15.2 µM
COc1ccc(N=Cc2ccc(N(CCC#N)CCC#N)cc2)cc1		> 84.5	> 100	> 100	> 91.8	> 100	> 100	> 100	> 100	
Nc1ncnc2c1ncn2C1OC(C(=O)O)C(O)C1O (centres undefined)									> 100	
Nc1ccc2c(c1)[O][Sn]([c]1ccccc1)([c]1ccccc1)[O]C2=O	29.9	3.12	15.4	23.4	23.9	31.1		29	9.26	GI50 (RXF-631 renal): 15.9 µM; GI50 (LXFL 529 NSCLC): 1.51 µM; GI50 (DLD-1 colon): 4.24 µM; GI50 (SNB-78 CNS): 5.31 µM; GI50 (HOP-18 NSCLC): 15.6 µM; GI50 (M19-MEL melanoma): 11 µM; GI50 (MDA-N): 2.95 µM; GI50 (DMS 273 small cell lung): 16.6 µM
O=C1c2cccc3cc([N+](=O)[O-])cc(c23)C(=O)N1CCCN1CCN(CCCN2C(=O)c3cccc4cc([N+](=O)[O-])cc(c34)C2=O)CC1	3.21	> 100	> 100	12.9	2.56		4.06	7.81		
[Cl][Sn]([c]1ccccc1)[c]1ccccc1	27	3.13	13.7	31		34	5.22	9.24		GI50 (RXF-631 renal): 3.86 µM; GI50 (LXFL 529 NSCLC): 1.4 µM; GI50 (DLD-1 colon): 3.65 µM; GI50 (SNB-78 CNS): 6.96 µM; GI50 (HOP-18 NSCLC): 3.27 µM; GI50 (DMS 273 small cell lung): 10 µM; GI50 (XF 498 CNS): 2.68 µM
Cn1cc(NC(=O)c2cc(NC(=O)CCCCCC(=O)Nc3cc(C(=O)Nc4cc(C(=O)NCCC(=N)N)n(C)c4)n(C)c3)cn2C)cc1C(=O)NCCC(=N)N	> 100	> 100	> 100	> 100	92.8	> 100	> 100	> 100		
O=C1C=C(c2cc(Br)c(O)c(Br)c2)/C(=C/c2cc(Br)c(O)c(Br)c2)O1									> 75	GI50 (MDA-N): 33 µM
c1ccc2c(NCCCCCCCCNc3c4ccccc4nc4ccccc34)c3ccccc3nc2c1	1.93	1.81	2.4		2.27	1.26	2.25	5.19		
CCCN(CCC)c1c([N+](=O)[O-])cc(S(N)(=O)=O)cc1[N+](=O)[O-]	35.5	30	34.9		40.6	33.8	30.2	36.2		
CN(C)CCNC(=O)c1cccc(CO)c1[N+](=O)[O-]									> 100	
c1cc2c(cnc3cscc32)s1	> 100		> 100	> 100	> 100	> 100	> 100			
CCOC(OC1=C(C#N)CCC1)C(CC)[Se]c1ccccc1 (centres undefined)		48.5	41.2	> 100	30.3	24.2	49.7	69.5		
